Results on six compounds are retold here after PMC3003761 (ACS chemical biology, 2010).

Data set [1] deals with serotype A botulinum neurotoxin-induced paralysis of mouse phrenic nerve-hemidiaphragm preparations.
The next data set is described as follows: in vivo. The note with it: male, CD-1, mouse, ip, 3 mg/kg.
The target of a further data set is Shaker-IR KV channel (Drosophila melanogaster, UniProt P08510, DEL6-46). As to the kind of experiment: cell-based.
The conditions of data set [2]: mouse, in vivo.
The test system of a further data set is BoNT/A. It counts as in vivo, mouse. The note with it: n = 10.
For data set [3] the following is noted: mouse, in vivo, ip, 3 mg/kg.
Data set [4] has as its system rat phrenic nerve-hemidiaphragm preparations. The note with it: cited from earlier work.

Read-outs that look alike come from different tables or passages of the source.

Turning to `c1cc2nc[nH]c2cn1` [Compound 7, 5-azabenzimidazole], in data set [1], the “Ability to reverse BoNT/A-induced muscle paralysis” value is reported as “unable to reverse BoNT/A-induced muscle paralysis”.

Turning to `CC[N+](CC)(CC)CCCc1ccccc1` [Compound 12, triethyl-3-phenylpropylammonium], the “Ability to reverse BoNT/A-induced muscle paralysis” value in data set [1] was “apparent neurotoxicity of the compound 12 prevented determination”.

For the compound `Nc1ccncc1N` [Compound 3, 3,4 diaminopyridine, reference compound], in “in vivo”, the Tmax was 30 min and the half-life is 20.4 min. On Shaker-IR KV channel, this compound came in with a Hill coefficient of 1.04 ± 0.18 and an IC50 of 26.7 ± 4 µM.

As to `C#CC[n+]1ccc(N)c(N)c1` [Compound 11, 3,4-diamino-1-(prop-2-ynyl)pyridinium], the “toxicity (distress) after compound alone” value in data set [2] is reported as “no distress was observed”. Also, the “Rescue of BoNT/A intoxicated mice” value in the data set on BoNT/A is reported as “low efficacy”. Moreover, in data set [3], the “AUC(0-infinity) (plasma)” value was 620 ng·h/mL, the “Cmax (plasma)” value came to 402 ng/mL, the “Tmax (plasma)” value worked out at 30 min and the “brain exposure as percentage of the plasma exposure” value is given as 13%. The compound also returned a plasma half-life in data set [3] of 72 min. This compound also registered a Hill coefficient on Shaker-IR KV channel of 1.28 ± 0.34. Moreover, the IC50 at Shaker-IR KV channel (read-out: K0.5 (compound concentration required to achieve 50% inhibition)) turned out to be 22.2 ± 4.3 µM.

`C[n+]1ccc(N)c(N)c1` [Compound 4, 3,4-diamino-1-methylpyridinium]: in data set [4], the “activity in rat phrenic nerve-hemidiaphragm preparations” value is “inactive”.

For the compound `Nc1cncc(N)c1N` [Compound 5, 3,4,5-Triaminopyridine], in data set [2], the “toxicity (distress) after compound alone” value was “no distress was observed”. In the data set “in vivo”, the Tmax amounted to 30 min and the half-life was 18.6 min. The “Rescue of BoNT/A intoxicated mice” value in the data set with BoNT/A is reported as “as effective as 3,4-DAP”. Besides, the brain exposure entry in data set [3] is “no detectable brain exposure”. At Shaker-IR KV channel, this compound registered a Hill coefficient of 1.09 ± 0.13 and an IC50 of 697 µM.
